No end group written: not given here.
Key:
cell viability = assay: Cell viability, Cell Counting Kit 8 (CCK-8); format: cell-based; settings: for cytotoxicity IC50 relative to concentration needed to inhibit CME: cytotoxicity vs CME inhibition
[1] = molecular target: hinge + appendage domain of the AP2 β2 subunit (β2-HAD) (UniProt P63010); settings: read-out: binding affinity KD to β2-HAD; ITC, 20°C, pH 7.4; 1.2 mM Wbox2 injected into 200 µM β2-HAD; A+B <–> AB model; binds a fraction of purified β2-HAD
Sequence of hinge + appendage domain of the AP2 β2 subunit (β2-HAD) (P63010 2-937): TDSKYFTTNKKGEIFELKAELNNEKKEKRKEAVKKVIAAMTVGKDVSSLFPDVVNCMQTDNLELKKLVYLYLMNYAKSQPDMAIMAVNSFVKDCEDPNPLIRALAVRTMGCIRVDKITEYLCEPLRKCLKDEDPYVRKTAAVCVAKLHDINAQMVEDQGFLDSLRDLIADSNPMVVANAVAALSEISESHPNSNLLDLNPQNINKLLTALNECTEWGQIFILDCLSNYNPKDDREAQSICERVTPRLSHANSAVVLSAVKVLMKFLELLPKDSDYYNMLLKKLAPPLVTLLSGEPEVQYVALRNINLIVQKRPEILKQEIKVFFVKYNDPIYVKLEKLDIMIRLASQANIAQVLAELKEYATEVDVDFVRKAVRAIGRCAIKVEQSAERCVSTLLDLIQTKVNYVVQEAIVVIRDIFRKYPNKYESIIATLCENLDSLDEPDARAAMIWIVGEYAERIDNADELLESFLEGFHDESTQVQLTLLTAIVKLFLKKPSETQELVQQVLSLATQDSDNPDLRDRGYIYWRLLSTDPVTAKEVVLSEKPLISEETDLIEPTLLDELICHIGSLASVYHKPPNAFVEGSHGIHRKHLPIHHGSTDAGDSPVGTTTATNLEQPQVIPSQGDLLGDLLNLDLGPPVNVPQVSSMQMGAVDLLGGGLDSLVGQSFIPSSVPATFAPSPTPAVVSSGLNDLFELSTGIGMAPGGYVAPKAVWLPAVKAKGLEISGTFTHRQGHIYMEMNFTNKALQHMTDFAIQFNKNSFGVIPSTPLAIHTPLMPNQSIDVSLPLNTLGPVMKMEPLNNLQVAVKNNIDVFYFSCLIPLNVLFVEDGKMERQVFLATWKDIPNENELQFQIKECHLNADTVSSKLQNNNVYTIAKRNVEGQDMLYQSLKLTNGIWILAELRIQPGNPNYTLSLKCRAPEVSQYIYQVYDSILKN
Procedure: Binding of TAT, Wbox2_mutant, and Wbox2 to SNX9 and β2-HAD was investigated by ITC using a MicroCal iTC200 (GE Healthcare Life Sciences). Measurements were performed at 20°C in reaction buffer: 20 mM Hepes, 150 mM NaCl, and 1 mM TCEP, pH 7.4. Protein and peptide concentrations were determined by absorbance at 280 and 205 nm, respectively. The peptides were injected from a syringe in 21 steps up to a molar excess over the protein concentration. Titration curves were executed with NITPIC and fitted with SEDPHAT.

[2] = tested on: TfnR uptake via CME in ARPE/HPV cells; assay: TfnR uptake (in-cell ELISA) after peptide preincubation; format: cell-based; settings: 60-min preincubation with peptide at 37°C, concentration curves, n = 4 replicates (Fig. 7 F), read-out: IC50 for inhibition of TfnR uptake
Procedure: Peptides encoding the TAT sequence (YGRKKRRQRRR) followed by 10 amino acid sequences covering the four reported binding sites on the clathrin terminal domain (Fig. 7 A) were synthesized by GenScript (Piscataway, NJ) with >95% purity. Peptides were dissolved in dH2O and further diluted in PBS4+ (1× PBS buffer plus 0.2% BSA, 1 mM CaCl2, 1 mM MgCl2, and 5 mM D-glucose) or cell culture medium (for imaging) when applied to cells. Peptide solutions were stored at −20°C.
Internalization of TfnR, CD44, CD59, and Biotin-Tfn was quantified by in-cell ELISA following established protocols ([Conner and Schmid, 2003]; [Srinivasan et al., 2018]). Cells were seeded in 96-well plates (Costar) at 60–70% confluence and grown overnight. Before the assay, cells were starved for 30 min in PBS4+ at 37°C or treated with peptides in PBS4+ at 37°C for the indicated times. After starvation, cells were moved to 4°C, and culture medium was replaced with cold PBS4+ containing 5 µg/ml HTR-D65 (anti-TfnR mAb; [Schmid and Smythe, 1991]), anti-human CD44 or anti-human CD59 (BD PharMingen) or 5 µg/ml Biotin-Tfn (Sigma-Aldrich). For single-round assays, the above reagents were kept with cells for 20 min at 4°C and then washed out before uptake assay. For multiround assays, the above reagents were kept with cells throughout the uptake process. In parallel, some cells were kept at 4°C for the measurement of surface-bound ligands and blank controls, and some were incubated in a 37°C water bath for the indicated times. Acid wash (0.2 M acetic acid and 0.2 M NaCl, pH 2.3) was used to remove surface-bound antibodies, followed by washing with cold PBS. All were fixed with 4% PFA (Electron Microscopy Sciences) in PBS for 30 min at 37°C. 0.1% Triton X-100 was added for 6.5 min to permeabilize cells, followed by addition of blocking buffer. HTR-D65–, CD44-, and CD59-treated cells were blocked with Q-PBS (PBS, 2% BSA, 0.1% lysine, and 0.01% saponin, pH 7.4), and Biotin-Tfn–treated cells were blocked with 2% casein. Surface-bound and internalized HTR-D65, CD44, and CD59 were probed with goat anti-mouse antibody conjugated with HRP (Sigma-Aldrich), and Biotin-Tfn was probed with Streptavidin-POD conjugate (Sigma-Aldrich). Color was developed using o-phenylenediamine dihydrochloride (OPD) solution (Sigma-Aldrich), and absorbance was read at 490 nm (Biotek Synergy H1 Hybrid Reader). Cell number variation among wells was accounted for by bicinchoninic acid assay reading at 562 nm.

SNX9 = SNX9 (Homo sapiens, UniProt Q9Y5X1); assay: Isothermal titration calorimetry with SNX9; format: binding; settings: ITC, 20°C, 20 mM Hepes, 150 mM NaCl, 1 mM TCEP, pH 7.4; 1.8 mM Wbox2 injected into 50 µM SNX9; two nonsymmetric sites model; read-out: binding affinity KD1, first Wbox2 binding site on SNX9
Sequence of SNX9 (Q9Y5X1 whole entry, species assumed): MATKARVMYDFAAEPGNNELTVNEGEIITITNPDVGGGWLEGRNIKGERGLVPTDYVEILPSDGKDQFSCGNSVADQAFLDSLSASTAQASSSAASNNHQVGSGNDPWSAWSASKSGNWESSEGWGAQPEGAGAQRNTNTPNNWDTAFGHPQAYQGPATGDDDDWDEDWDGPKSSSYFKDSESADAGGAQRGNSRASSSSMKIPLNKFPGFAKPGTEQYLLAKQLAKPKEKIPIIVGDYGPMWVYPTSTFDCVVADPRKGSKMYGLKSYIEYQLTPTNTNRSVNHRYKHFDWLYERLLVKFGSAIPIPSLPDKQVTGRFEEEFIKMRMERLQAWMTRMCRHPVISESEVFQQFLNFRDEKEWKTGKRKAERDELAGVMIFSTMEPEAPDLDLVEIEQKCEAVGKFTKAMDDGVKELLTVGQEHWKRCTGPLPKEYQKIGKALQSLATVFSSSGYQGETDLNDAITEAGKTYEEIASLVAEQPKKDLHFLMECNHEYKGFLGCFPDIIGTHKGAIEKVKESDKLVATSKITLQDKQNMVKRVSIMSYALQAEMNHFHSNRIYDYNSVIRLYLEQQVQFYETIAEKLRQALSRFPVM
Excerpt: GUSSI was further used to output the figures presented.

In the case of YGRKKRRQRRRGFSCQIIGIS [Wbox2], the IC50 for cytotoxicity (cell viability; CCK-8, n = 4 replicates (Fig. S5)) is reported as greater than 40 µM, the “effect on cell viability” value (cell viability; concentrations ≤30 µM, CCK-8, n = 4 replicates (Fig. S5)) is reported as “no effect” and the “cytotoxicity IC50 relative to concentration needed to inhibit CME” value (cell viability) is reported as 10 fold. For the same sequence, the “cytotoxicity IC50 relative to concentration needed to inhibit CME” value (cell viability; listed as CMEpi) was ~ 10 fold, the Kd [1] was 37.5 µM and the IC50 [2] was roughly 3 µM. The Kd (SNX9) was 4 µM.

Source: article PMC7480105, “Wbox2: A clathrin terminal domain–derived peptide inhibitor of clathrin-mediated endocytosis” (The Journal of Cell Biology, 2020)
